Experimental data: ChEMBL document CHEMBL1201862, “PubChem BioAssay data set” (2004)
Where “and” joins values, the source holds several entries; their conditions need not be identical. Equal entries are not always repeated.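 Compound exposure: 48 hours, 5 concentrations, 96-well plates. GI50 is the concentration that inhibits growth by half.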 Calls of active or inactive are those of the source. No stated cut-off is given here; in the data, active = GI50 up to about 1.1 µM and inactive = higher.

Columns and labels:
Test in all cases: NCI tumour cell line growth inhibition, 48 h
MOLT-4 = system: MOLT-4
OVCAR-8 = system: OVCAR-8
SN12C = system: SN12C
A549 = system: A549
LOX IMVI = system: LOX IMVI
NCI-H23 = system: NCI-H23
K562 = system: K562
SK-MEL-28 = system: SK-MEL-28
SR = system: SR
NCI-H460 = system: NCI-H460
CCRF-CEM = system: CCRF-CEM
UACC-62 = system: UACC-62
SK-MEL-5 = system: SK-MEL-5
SF-295 = system: SF-295
HL-60 = system: HL-60
HOP-62 = system: HOP-62

Row | SMILES | GI50 (MOLT-4) | GI50 (OVCAR-8) | GI50 (SN12C) | GI50 (A549) | GI50 (LOX IMVI) | GI50 (NCI-H23) | GI50 (K562) | GI50 (SK-MEL-28) | GI50 (SR) | GI50 (NCI-H460) | GI50 (CCRF-CEM) | GI50 (UACC-62) | GI50 (SK-MEL-5) | GI50 (SF-295) | GI50 (HL-60) | GI50 (HOP-62)
1 | COc1c(Cl)c(Cl)c(OC)c2c1C(=O)C=CC2=O | 2.9 µM (inactive) | 17.1 µM (inactive) | 23.4 µM (inactive) | 88.7 µM (inactive) | 15.9 µM (inactive) | 40.4 µM (inactive) | 7.85 µM (inactive) | 17.7 µM (inactive) | 10.4 µM (inactive) | 37.8 µM (inactive) | 3.83 µM (inactive) | 15.6 µM (inactive) | 34.9 µM (inactive) | 18.5 µM (inactive) | 2.17 µM (inactive) | 
2 | CCCN(CCC)c1c([N+](=O)[O-])cc(C(=O)N(CCO)CCO)cc1[N+](=O)[O-] | > 100 µM (inactive) | > 100 µM (inactive) | > 100 µM (inactive) | > 100 µM (inactive) |  | > 100 µM (inactive) | 61.4 µM (inactive) | > 100 µM (inactive) |  | > 100 µM (inactive) | > 100 µM (inactive) |  | > 100 µM (inactive) | > 100 µM (inactive) | > 100 µM (inactive) | 
3 | CCOc1ccc(NC(=O)/C(=C/c2ccccc2)C(C)=O)cc1 | 3.73 µM (inactive) | 12.1 µM (inactive) | 13.2 µM (inactive) | 22.2 µM (inactive) | 7.14 µM (inactive) | 10.9 µM (inactive) | 5.27 µM (inactive) | 12.9 µM (inactive) |  | 17.4 µM (inactive) | 2.87 µM (inactive) | 5.04 µM (inactive) | 12.2 µM (inactive) | 13.5 µM (inactive) | 2.32 µM (inactive) | 16.3 µM (inactive)
4 | C[N+](C)(C)CC(=O)N/N=C(/C(=O)Nc1ccc(Br)cc1)C1C(=O)NC(=O)NC1=O | > 100 µM (inactive) |  | > 100 µM (inactive) | > 100 µM (inactive) | > 100 µM (inactive) | > 100 µM (inactive) | > 100 µM (inactive) | > 100 µM (inactive) | > 100 µM (inactive) | > 100 µM (inactive) | > 100 µM (inactive) | > 100 µM (inactive) | > 100 µM (inactive) | > 100 µM (inactive) | > 100 µM (inactive) | > 100 µM (inactive)
5 | COc1ccc2nc(NC(=O)C(=O)CC(=O)c3ccc([N+](=O)[O-])cc3)sc2c1 | > 100 µM (inactive) | > 100 µM (inactive) | > 100 µM (inactive) | > 100 µM (inactive) |  | > 100 µM (inactive) | > 100 µM (inactive) | > 100 µM (inactive) |  | > 100 µM (inactive) | > 100 µM (inactive) | > 100 µM (inactive) | > 100 µM (inactive) |  |  | > 100 µM (inactive)
6 | C[N+](C)(C)CCc1ccccc1 | > 100 µM (inactive) | > 100 µM (inactive) | > 100 µM (inactive) | > 100 µM (inactive) | > 100 µM (inactive) | > 100 µM (inactive) | > 100 µM (inactive) | > 100 µM (inactive) | > 100 µM (inactive) | > 100 µM (inactive) | > 100 µM (inactive) | > 100 µM (inactive) | > 100 µM (inactive) | > 100 µM (inactive) | > 100 µM (inactive) | > 100 µM (inactive)
7 | CN(C)/N=N/c1ccccc1 | > 100 µM (inactive) | > 100 µM (inactive) | > 100 µM (inactive) | 68.5 µM (inactive) |  | > 100 µM (inactive) | > 100 µM (inactive) | > 100 µM (inactive) | > 100 µM (inactive) | 98.9 µM (inactive) | 22 µM (inactive) |  | > 100 µM (inactive) | 1.35 µM (inactive) | > 100 µM (inactive) | 
8 | CC(C)C(=O)/C=C/c1ccc(Cl)c(Cl)c1 | 24.4 µM (inactive) | 18.9 µM (inactive) | 15 µM (inactive) | 21 µM (inactive) |  | 18.3 µM (inactive) | 6.18 µM (inactive) | 18.7 µM (inactive) | 14.5 µM (inactive) | 22.2 µM (inactive) | 4.53 µM (inactive) | 17.3 µM (inactive) | 14.8 µM (inactive) | 13.4 µM (inactive) | 15 µM (inactive) | 
9 | O=C1[C@@H]2C3c4ccccc4C([C@@H]2C(=O)N1c1ccccc1)S3(=O)=O | > 100 µM (inactive) | > 100 µM (inactive) | 61.5 µM (inactive) |  | 47.2 µM (inactive) | > 100 µM (inactive) | 61.4 µM (inactive) |  | > 100 µM (inactive) | 31.1 µM (inactive) | 32.1 µM (inactive) | > 100 µM (inactive) | > 100 µM (inactive) | 81.7 µM (inactive) | > 100 µM (inactive) | 
10 | NNC(=O)CC(=O)Nc1ccccc1F | > 100 µM (inactive) | > 100 µM (inactive) | > 100 µM (inactive) | > 100 µM (inactive) | > 100 µM (inactive) | > 100 µM (inactive) | > 100 µM (inactive) | > 100 µM (inactive) |  | > 100 µM (inactive) | > 100 µM (inactive) | > 100 µM (inactive) | > 100 µM (inactive) | > 100 µM (inactive) | > 100 µM (inactive) | > 100 µM (inactive)
11 | COc1cccc2c1C1=CC(=O)CCC1C(C)(C)O2 (configuration not stated) | > 100 µM (inactive) | > 100 µM (inactive) | > 100 µM (inactive) | > 100 µM (inactive) | 35.7 µM (inactive) | > 100 µM (inactive) | > 100 µM (inactive) | > 100 µM (inactive) |  | 35.9 µM (inactive) | 56.4 µM (inactive) | > 100 µM (inactive) | > 100 µM (inactive) | > 100 µM (inactive) | 60 µM (inactive) | > 100 µM (inactive)
12 | CCOC(=O)c1ccc(/N=C/c2ccc(N(CCC#N)S(=O)(=O)c3ccccc3)cc2C)cc1 | 28.6 µM (inactive) | > 100 µM (inactive) | 75.7 µM (inactive) | 47.1 µM (inactive) | 22.8 µM (inactive) | > 100 µM (inactive) | 9.79 µM (inactive) | 61.2 µM (inactive) |  |  | 36.6 µM (inactive) | 19.4 µM (inactive) | 80.7 µM (inactive) | 26.5 µM (inactive) | 19.4 µM (inactive) | 31 µM (inactive)
13 | CC(C)N1CC2CC(CN(C(=O)c3ccc(Cl)cc3)C2)C1 | > 100 µM (inactive) | > 100 µM (inactive) | > 100 µM (inactive) | > 100 µM (inactive) | > 100 µM (inactive) | > 100 µM (inactive) | > 100 µM (inactive) | > 100 µM (inactive) |  | > 100 µM (inactive) | > 100 µM (inactive) | > 100 µM (inactive) | > 100 µM (inactive) | > 100 µM (inactive) | > 100 µM (inactive) | > 100 µM (inactive)
14 | O=c1oc2ccccc2[n+]([O-])c1-c1ccccc1 | > 100 µM (inactive) | > 100 µM (inactive) | > 100 µM (inactive) | > 100 µM (inactive) | > 100 µM (inactive) | > 100 µM (inactive) | > 100 µM (inactive) | > 100 µM (inactive) |  | > 100 µM (inactive) | > 100 µM (inactive) | > 100 µM (inactive) | > 100 µM (inactive) | > 100 µM (inactive) | > 100 µM (inactive) | > 100 µM (inactive)
15 | CN(CCN1C(=O)c2cc([N+](=O)[O-])cc3cc([N+](=O)[O-])cc(c23)C1=O)CCN1C(=O)c2cc([N+](=O)[O-])cc3cc([N+](=O)[O-])cc(c23)C1=O | 0.0485 µM (active) | 0.267 µM (active) | 0.332 µM (active) | 0.887 µM (active) | 0.248 µM (active) | 1.74 µM (inactive) | 0.23 µM (active) | 0.798 µM (active) |  | 0.387 µM (active) | 0.0524 µM (active) | 0.811 µM (active) | 1.21 µM (inactive) | 0.59 µM (active) | 0.234 µM (active) | 2.65 µM (inactive)
16 | Cc1cc(C)c(C(=O)C(C)C(c2ccccc2)c2ccc(Cl)cc2)c(C)c1 (configuration not stated) | 65.9 µM (inactive) and 50.7 µM (inactive) | > 100 µM (inactive) | > 100 µM (inactive) | > 100 µM (inactive) |  | > 100 µM (inactive) and 60.7 µM (inactive) | 50.5 µM (inactive) and 48.8 µM (inactive) | > 100 µM (inactive) | 76.2 µM (inactive) and 64.6 µM (inactive) | > 100 µM (inactive) | 46.3 µM (inactive) and 67.5 µM (inactive) | > 100 µM (inactive) | > 100 µM (inactive) | > 100 µM (inactive) |  | > 100 µM (inactive)
17 | C=C1C(=O)OC2C1C(OC(=O)/C(=C/C)COC(C)=O)CC1(CO1)C1C(OC(=O)/C(=C/C)CO)C=C(C)C21 (configuration not stated) | 0.378 µM (active) | 0.564 µM (active) | 1.82 µM (inactive) | 6.9 µM (inactive) | 3.19 µM (inactive) | 1.63 µM (inactive) | 1.6 µM (inactive) | 1.82 µM (inactive) |  | 6.98 µM (inactive) | 0.333 µM (active) | 1.59 µM (inactive) | 2.29 µM (inactive) | 5.16 µM (inactive) | 0.446 µM (active) | 
18 | Cc1ccc(S(=O)(=O)c2ccc(C)cc2[N+](=O)[O-])cc1 | 45.1 µM (inactive) |  | > 100 µM (inactive) | > 100 µM (inactive) | 82.8 µM (inactive) | 53.7 µM (inactive) | 50.5 µM (inactive) | > 100 µM (inactive) | 79.4 µM (inactive) | > 100 µM (inactive) | > 100 µM (inactive) | 92.3 µM (inactive) | 24.4 µM (inactive) | 79.4 µM (inactive) | 29.3 µM (inactive) | > 100 µM (inactive)
19 | Cc1c2cc[n+](C)cc2c(C)c2c1[nH]c1ccc(O)c(OCC(F)(F)F)c12 | 2.42 µM (inactive) | 1.85 µM (inactive) | 0.34 µM (active) | 1.87 µM (inactive) | 13 µM (inactive) | 0.984 µM (active) | 2.39 µM (inactive) | 5.65 µM (inactive) |  | 1.51 µM (inactive) | 4.97 µM (inactive) | 5.66 µM (inactive) | 1.51 µM (inactive) | 0.839 µM (active) | 2.5 µM (inactive) | 1.12 µM (inactive)
